Experiment: photoluminescence quantum yield (fraction); solvent given as SMILES
[1] = in O=P(c1ccccc1)(c1ccccc1)c1ccccc1Oc1ccccc1P(=O)(c1ccccc1)c1ccccc1

O=P1(c2ccccc2)C(c2cc(C(F)(F)F)cc(C(F)(F)F)c2)=Cc2c3ccc4cccc5ccc(c6cc(-c7ccc(N(c8ccccc8)c8ccccc8)cc7)n1c26)c3c45 (configuration not stated)
photoluminescence quantum yield (in C1CCCCC1): 0.44
photoluminescence quantum yield (in C1CCOC1): 0.17
photoluminescence quantum yield (in C1COCCO1): 0.48
photoluminescence quantum yield (in CC#N): 0.004
photoluminescence quantum yield (in CC(C)=O): 0.11
photoluminescence quantum yield (in CO): 0.004
photoluminescence quantum yield (in Cc1ccccc1): 0.49
photoluminescence quantum yield (in ClC(Cl)Cl): 0.49
photoluminescence quantum yield (in ClCCl): 0.23

CC(C)[Si](C#Cc1c2cc3ccccc3cc2c(C#Cc2ccc(Br)cc2)c2cc3ccccc3cc12)(C(C)C)C(C)C
photoluminescence quantum yield (in ClCCl): 0.12

N#Cc1ccc(-n2nc(C#N)c(N3CCCC3)n2)cc1
photoluminescence quantum yield (in CC#N): 0.579

CCC(C)(C)c1ccc2c(c1)C(CCOC)(CCOC)c1cc(-c3ccc4c(c3)C(CCOC)(CCOC)c3cc(C(C)(C)CC)ccc3-4)ccc1-2
photoluminescence quantum yield (in C1CCCCC1): 0.61

C=C(C)C(CN1C(=O)c2cccc3c2c(cc2nc(C)oc23)C1=O)OO (configuration not stated)
photoluminescence quantum yield (in CCO): 0.061

CC1=CC(C)=[N+]2C1=Cc1c3ccccc3c(C#Cc3ccsc3)n1[B-]2(F)F
photoluminescence quantum yield (in CCCCCC): 1
photoluminescence quantum yield (in CCCCCCCCO): 0.72
photoluminescence quantum yield (in CCOC(C)=O): 0.81
photoluminescence quantum yield (in CN(C)C=O): 0.67
photoluminescence quantum yield (in ClCCl): 0.8

CC(C)[Si](C#Cc1c2nsnc2c(C#C[Si](C(C)C)(C(C)C)C(C)C)c2nc3c(ccc4cc5ccccc5cc43)nc12)(C(C)C)C(C)C
photoluminescence quantum yield (in CCCCCC): 0.13

CN(C)c1ccc(C2=C(c3ccccc3)c3sc4ccccc4[n+]3[B-](F)(F)O2)cc1
photoluminescence quantum yield (in C1CCOC1): 0.01

N#Cc1c(-n2nnc3ccccc32)n([C@H]2C[C@H](O)[C@@H](CO)O2)c2ncnc(N)c12
photoluminescence quantum yield (in CO): 0.002

c1ccc2c(c1)[nH]c1cccnc12
photoluminescence quantum yield (in C1CCCCC1): 0.145
photoluminescence quantum yield (in C1CCOC1): 0.081
photoluminescence quantum yield (in C1COCCO1): 0.122
photoluminescence quantum yield (in CCO): 0.129
photoluminescence quantum yield (in CN(C)C=O): 0.079
photoluminescence quantum yield (in Cc1ccccc1): 0.099
photoluminescence quantum yield (in ClC(Cl)Cl): 0.124
photoluminescence quantum yield (in Clc1ccccc1): 0.119

Cc1c(C2=[N+]3C(=Cc4c(C)c5ccccc5n4[B-]3(F)F)c3ccccc32)[nH]c2ccccc12
photoluminescence quantum yield (in C1CCOC1): 0.04
photoluminescence quantum yield (in CC#N): 0.04
photoluminescence quantum yield (in CCCCCC): 0.14
photoluminescence quantum yield (in CO): 0.03
photoluminescence quantum yield (in Cc1ccccc1): 0.14
photoluminescence quantum yield (in ClCCl): 0.08

c1ccc(-c2ccc3c(c2)c2cc(-c4ccccc4)ccc2n3-c2ccc3c(c2)c2cc(-n4c5ccc(-c6ccccc6)cc5c5cc(-c6ccccc6)ccc54)ccc2n3-c2ccc(-c3nc(-c4ccccc4)nc(-c4ccccc4)n3)cc2)cc1
photoluminescence quantum yield (in Cc1ccccc1): 0.74

c1ccc(N(c2ccccc2)c2ccc(-c3cncs3)cc2)cc1
photoluminescence quantum yield (in CO): 0.53

CCCCOc1ccc(-c2oc3cc4n(c3c2-c2ccc(OCCCC)cc2)[B-](F)(F)[N+]2=Cc3cc5oc(-c6ccc(OCCCC)cc6)c(-c6ccc(OCCCC)cc6)c5n3[B-](F)(F)[N+]2=C4)cc1
photoluminescence quantum yield (in C1CCOC1): 0.44
photoluminescence quantum yield (in CN(C)C=O): 0.32
photoluminescence quantum yield (in CS(C)=O): 0.31
photoluminescence quantum yield (in Cc1ccccc1): 0.42
photoluminescence quantum yield (in ClC(Cl)Cl): 0.43
photoluminescence quantum yield (in ClCCl): 0.43

CCCC1(CCC)c2cc(-c3ccc(-c4ccccc4)cc3)ccc2-c2ccc(-c3ccc4c(c3)C(CCC)(CCC)c3cc(-c5ccc(-c6ccccc6)cc5)ccc3-4)cc21
photoluminescence quantum yield (in Cc1ccccc1): 0.92

O=C1NC(=O)c2c1c1c3ccccc3[nH]c1c1[nH]c3ccccc3c21
photoluminescence quantum yield (in C1CCOC1): 0.44
photoluminescence quantum yield (in CC#N): 0.33
photoluminescence quantum yield (in CC(C)OC(C)C): 0.25
photoluminescence quantum yield (in CCCCOCCCC): 0.28
photoluminescence quantum yield (in CCO): 0.26
photoluminescence quantum yield (in CCOC(C)=O): 0.29
photoluminescence quantum yield (in CN(C)C=O): 0.25
photoluminescence quantum yield (in ClCCl): 0.18

F[B-]1(F)n2c(c3cccc4cccc2c43)=Nc2sc3ccccc3[n+]21
photoluminescence quantum yield (in C1CCOC1): 0.89
photoluminescence quantum yield (in CC#N): 0.97
photoluminescence quantum yield (in CCCCCC): 0.87
photoluminescence quantum yield (in Cc1ccccc1): 0.76
photoluminescence quantum yield (in ClCCl): 0.85

COc1ccc2c(c1)CCC1=C(C#Cc3cc4ccccc4c4ccccc34)O[B-](F)(F)[O+]=C12
photoluminescence quantum yield (in ClCCl): 0.425

Cc1ccccc1CN(Cc1ccccc1C)c1nc(C#N)c(N(Cc2ccccc2C)Cc2ccccc2C)nc1C#N
photoluminescence quantum yield (in ClC(Cl)Cl): 0.73

C[SiH]1c2ccccc2-c2cc3c(cc21)-c1ccccc1[SiH]3C (configuration not stated)
photoluminescence quantum yield (in ClCCl): 0.5

F[B-]1(F)Oc2ccccc2-c2cc(-n3c4ccccc4c4ccccc43)cc[n+]21
photoluminescence quantum yield [1]: 0.99

c1ccc(-c2nc(-c3ccccc3)nc(-c3ccc(N4c5ccccc5C5(c6ccccc6-c6ccccc65)c5ccccc54)cc3)n2)cc1
photoluminescence quantum yield [1]: 0.801

N#Cc1c(N2CCCCC2)cc(-c2ccc(-c3ccccc3)cc2)c2c1CCc1ccccc1-2
photoluminescence quantum yield (in C1CCOC1): 0.38

O=c1c2ccc(-c3ccc(N(c4ccccc4)c4ccccc4)cc3)cc2sc2cc(-c3ccc(N(c4ccccc4)c4ccccc4)cc3)ccc12
photoluminescence quantum yield (in c1ccc2c(c1)c1ccccc1n2-c1ccc(-c2ccc(-n3c4ccccc4c4ccccc43)cc2)cc1): 0.35

O=S(=O)([O-])c1ccccc1/C=C/c1ccc(-c2nnc(-c3ccc(/C=C/c4ccccc4S(=O)(=O)[O-])cc3)o2)cc1
photoluminescence quantum yield (in C1CCOC1): 0.22
photoluminescence quantum yield (in CC(C)=O): 0.17
photoluminescence quantum yield (in CN(C)C=O): 0.75

Reference: the Deep4Chem optical property database
